Experimental data reported in patent publication US11986471B2, “Compounds and methods of use” (Tango Therapeutics, Inc., priority 2018, dated 2024).

How the values were obtained:
[1] = molecular target: T1, PRMT5 (Homo sapiens, UniProt O14744); assay: PRMT5 IC50 assay in the presence of MTA as cofactor; assay type: biochemical; conditions: for IC50: PRMT5, MTA as cofactor; for SAM/MTA Ratio: ratio between the Ki in the presence of SAM and the Ki in the presence of MTA
T1 construct: purchased Viva (custom protein)
T1 sequence (O14744 whole entry): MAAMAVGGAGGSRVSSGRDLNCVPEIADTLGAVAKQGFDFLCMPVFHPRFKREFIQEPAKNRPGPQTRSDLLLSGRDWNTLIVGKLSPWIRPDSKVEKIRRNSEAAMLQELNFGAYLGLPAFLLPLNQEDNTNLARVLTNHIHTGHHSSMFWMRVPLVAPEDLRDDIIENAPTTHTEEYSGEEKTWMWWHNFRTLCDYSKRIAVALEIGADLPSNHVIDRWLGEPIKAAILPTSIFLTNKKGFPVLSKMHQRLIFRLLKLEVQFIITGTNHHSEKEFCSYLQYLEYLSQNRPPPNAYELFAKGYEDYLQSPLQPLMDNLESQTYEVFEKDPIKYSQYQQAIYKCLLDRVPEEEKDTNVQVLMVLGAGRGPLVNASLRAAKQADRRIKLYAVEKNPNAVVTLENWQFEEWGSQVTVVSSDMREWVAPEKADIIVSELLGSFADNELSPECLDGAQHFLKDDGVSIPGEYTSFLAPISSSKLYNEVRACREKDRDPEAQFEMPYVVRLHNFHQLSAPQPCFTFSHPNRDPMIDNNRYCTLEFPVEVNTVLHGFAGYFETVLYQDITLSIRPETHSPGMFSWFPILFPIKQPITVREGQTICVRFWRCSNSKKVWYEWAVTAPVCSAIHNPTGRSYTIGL
T1 sequence (Q9BQA1 whole entry partner): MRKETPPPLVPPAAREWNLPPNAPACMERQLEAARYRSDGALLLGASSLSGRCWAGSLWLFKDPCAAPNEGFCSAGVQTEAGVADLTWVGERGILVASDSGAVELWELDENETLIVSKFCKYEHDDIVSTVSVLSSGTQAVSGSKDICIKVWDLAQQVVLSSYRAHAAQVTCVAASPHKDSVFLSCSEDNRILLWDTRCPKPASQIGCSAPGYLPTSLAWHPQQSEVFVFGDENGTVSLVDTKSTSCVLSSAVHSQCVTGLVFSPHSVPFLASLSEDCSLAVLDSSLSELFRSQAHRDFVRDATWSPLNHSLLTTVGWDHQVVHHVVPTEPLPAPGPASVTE
Method in brief: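 Ki conversion: SAM arm, Ki=IC50/1.5; MTA arm, Ki=IC50/13.5. No-cofactor arm reported as IC50 only. Selectivity expressed as Ki(SAM)/Ki(MTA).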

[2] = system: HAP1 MTAP-deleted; assay: SDMA in-cell western assay, HAP1 MTAP-deleted cell line; assay type: cell-based; conditions: for IC50: Homo sapiens, HAP1 MTAP-deleted cell line; for MTAP Intact/Deleted Ratio: IC50 ratio HAP1 MTAP-intact / HAP1 MTAP-deleted
Method in brief: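 Symmetric dimethylarginine (SDMA) levels were measured by in-cell western in MTAP-null HAP1 cells, one half of an MTAP-isogenic pair whose partner line expresses endogenous MTAP. Compound potency is reported as IC50.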

[3] = molecular target: T1, PRMT5; assay: PRMT5 IC50 assay in the presence of SAM as cofactor; assay type: biochemical
Method in brief: (§1)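 IC50 values were measured against human PRMT5 with SAM, with MTA, or with no cofactor. Ki was derived from IC50 as Ki=IC50/1.5 with SAM and Ki=IC50/13.5 with MTA, and the Ki(SAM)/Ki(MTA) ratio was then taken.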

[4] = molecular target: T1, PRMT5; assay: PRMT5 IC50 assay with no cofactor; assay type: biochemical
Method in brief: as §1

[5] = system: HAP1 MTAP-intact; assay: SDMA in-cell western assay, HAP1 MTAP-intact cell line; assay type: cell-based; conditions: Homo sapiens
Method in brief: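 Symmetric dimethylarginine (SDMA) levels were measured by in-cell western in an isogenic HAP1 pair, one expressing endogenous MTAP and one MTAP-null, and IC50 values were derived for each line. Compounds whose IC50 ratio between the lines is 3-fold or more are classed as MTAP-selective.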

| IC50 [1] | IC50 [2] | IC50 [3] | IC50 [4] | IC50 [5] | Compound | SAM/MTA Ratio [1] | MTAP Intact/Deleted Ratio [2] |
| --- | --- | --- | --- | --- | --- | --- | --- |
| 50 to 500 nM | 1000 to 10000 nM | 50 to 500 nM | ≥ 5000 nM | ≥ 10000 nM | COc1ccc(C(=O)N2CCc3cc(C(=O)NC[C@H](O)CN4CCc5c(ccc(OCc6ocnc6C)c5C)C4)ccc3C2)cc1 [Compound 533, N-[(2S)-2-hydroxy-3-{5-methyl-6-[(4-methyl-1,3-oxazol-5-yl)methoxy]-1,2,3,4-tetrahydroisoquinolin-2-yl}propyl]-2-(4-methoxybenzoyl)-1,2,3,4-tetrahydroisoquinoline-6-carboxamide] | A (a Ki ratio greater than or equal to 10 fold between the Ki in the presence of SAM and the Ki in the presence of MTA) | C* (an IC50 ratio of less than 3 fold between the IC50 in the HAP1 MTAP-intact cell line and the HAP1 MTAP-deleted cell line) |
| < 50 nM | < 1000 nM | 50 to 500 nM | 500 to 5000 nM | 1000 to 10000 nM | CC(=O)N1CC(Nc2cc(C(=O)NC[C@H](O)CN3CCc4cc(OCc5ocnc5C)ccc4C3)nc(N3CCCCC3)n2)C1 [Compound 534, 6-[(1-acetylazetidin-3-yl)amino]-N-[(2S)-2-hydroxy-3-{6-[(4-methyl-1,3-oxazol-5-yl)methoxy]-1,2,3,4-tetrahydroisoquinolin-2-yl}propyl]-2-(piperidin-1-yl)pyrimidine-4-carboxamide] | A (a Ki ratio greater than or equal to 10 fold between the Ki in the presence of SAM and the Ki in the presence of MTA) | A* (an IC50 ratio greater than or equal to 10 fold between the IC50 in the HAP1 MTAP-intact cell line and the HAP1 MTAP-deleted cell line) |
| 50 to 500 nM | 1000 to 10000 nM | 50 to 500 nM | 500 to 5000 nM | ≥ 10000 nM | Cc1c(OCc2cnco2)ccc2c1CCN(C[C@@H](O)CNC(=O)c1cc(NC3CCN(C(=O)C4CCC4)CC3)ncn1)C2 [Compound 536, 6-[(1-cyclobutanecarbonylpiperidin-4-yl)amino]-N-[(2S)-2-hydroxy-3-{5-methyl-6-[(1,3-oxazol-5-yl)methoxy]-1,2,3,4-tetrahydroisoquinolin-2-yl}propyl]pyrimidine-4-carboxamide] | A (a Ki ratio greater than or equal to 10 fold between the Ki in the presence of SAM and the Ki in the presence of MTA) | B* (an IC50 ratio greater than or equal to 3 fold but lower than 10 fold between the IC50 in the HAP1 MTAP-intact cell line and the HAP1 MTAP-deleted cell line) |
| 50 to 500 nM | ≥ 10000 nM | 50 to 500 nM | 500 to 5000 nM | ≥ 10000 nM | Cc1ncoc1COc1ccc2c(c1C)CCN(C[C@@H](O)CNC(=O)c1cc(NC3CCC3)nc(N3CCN(C(C)C)CC3)c1)C2 [Compound 539, 2-(cyclobutylamino)-N-[(2S)-2-hydroxy-3-{5-methyl-6-[(4-methyl-1,3-oxazol-5-yl)methoxy]-1,2,3,4-tetrahydroisoquinolin-2-yl}propyl]-6-[4-(propan-2-yl)piperazin-1-yl]pyridine-4-carboxamide] | A (a Ki ratio greater than or equal to 10 fold between the Ki in the presence of SAM and the Ki in the presence of MTA) | C* (an IC50 ratio of less than 3 fold between the IC50 in the HAP1 MTAP-intact cell line and the HAP1 MTAP-deleted cell line) |
| 50 to 500 nM | 1000 to 10000 nM | 50 to 500 nM | 500 to 5000 nM | ≥ 10000 nM | COc1ccc(C(=O)N2CCc3cc(C(=O)NC[C@H](O)CN4CCc5c(ccc(OCc6cnco6)c5C)C4)ccc3C2)cc1 [Compound 540, N-[(2S)-2-hydroxy-3-{5-methyl-6-[(1,3-oxazol-5-yl)methoxy]-1,2,3,4-tetrahydroisoquinolin-2-yl}propyl]-2-(4-methoxybenzoyl)-1,2,3,4-tetrahydroisoquinoline-6-carboxamide] | A (a Ki ratio greater than or equal to 10 fold between the Ki in the presence of SAM and the Ki in the presence of MTA) | C* (an IC50 ratio of less than 3 fold between the IC50 in the HAP1 MTAP-intact cell line and the HAP1 MTAP-deleted cell line) |
| 50 to 500 nM | 1000 to 10000 nM | 50 to 500 nM | 500 to 5000 nM | 1000 to 10000 nM | CCN1CCN(c2nc(NC3COC3)cc(C(=O)NC[C@H](O)CN3CCc4cc(OCc5ocnc5C)ccc4C3)n2)CC1 [Compound 544, 2-(4-ethylpiperazin-1-yl)-N-[(2S)-2-hydroxy-3-(6-[(4-methyl-1,3-oxazol-5-yl)methoxy]-1,2,3,4-tetrahydroisoquinolin-2-yl}propyl]-6-[(oxetan-3-yl)amino]pyrimidine-4-carboxamide] | A (a Ki ratio greater than or equal to 10 fold between the Ki in the presence of SAM and the Ki in the presence of MTA) | B* (an IC50 ratio greater than or equal to 3 fold but lower than 10 fold between the IC50 in the HAP1 MTAP-intact cell line and the HAP1 MTAP-deleted cell line) |
| 50 to 500 nM | 1000 to 10000 nM | 50 to 500 nM | 500 to 5000 nM | ≥ 10000 nM | CC(=O)N1CCN(c2cc(C(=O)NC[C@H](O)CN3CCc4c(ccc(OCc5cnco5)c4Cl)C3)cc(NC3CCC3)n2)CC1 [Compound 545, (S)-2-(4-acetylpiperazin-1-yl)-N-(3-(5-chloro-6-(oxazol-5-ylmethoxy)-3,4-dihydroisoquinolin-2(1H)-yl)-2-hydroxypropyl)-6-(cyclobutylamino)isonicotinamide] | A (a Ki ratio greater than or equal to 10 fold between the Ki in the presence of SAM and the Ki in the presence of MTA) | B* (an IC50 ratio greater than or equal to 3 fold but lower than 10 fold between the IC50 in the HAP1 MTAP-intact cell line and the HAP1 MTAP-deleted cell line) |
| 50 to 500 nM | ≥ 10000 nM | 50 to 500 nM | 500 to 5000 nM | ≥ 10000 nM | Cc1c(OCc2cnco2)ccc2c1CCN(C[C@@H](O)CNC(=O)c1ccc3c(c1)CCN(C(=O)c1ccc(Br)cc1)C3)C2 [Compound 546] | – | C* (an IC50 ratio of less than 3 fold between the IC50 in the HAP1 MTAP-intact cell line and the HAP1 MTAP-deleted cell line) |
| 50 to 500 nM | 1000 to 10000 nM | 50 to 500 nM | 500 to 5000 nM | 1000 to 10000 nM | COc1ccc(C(=O)N2CCc3cc(C(=O)NC[C@H](O)CN4CCc5cc(OCc6cnco6)ccc5C4)ccc3C2)cc1 [Compound 547, (S)—N-(2-hydroxy-3-(6-(oxazol-5-ylmethoxy)-3,4-dihydroisoquinolin-2(1H)-yl)propyl)-2-(4-methoxybenzoyl)-1,2,3,4-tetrahydroisoquinoline-6-carboxamide] | A (a Ki ratio greater than or equal to 10 fold between the Ki in the presence of SAM and the Ki in the presence of MTA) | C* (an IC50 ratio of less than 3 fold between the IC50 in the HAP1 MTAP-intact cell line and the HAP1 MTAP-deleted cell line) |
| 50 to 500 nM | ≥ 10000 nM | 50 to 500 nM | 500 to 5000 nM | ≥ 10000 nM | CC(=O)N1CCC(Nc2cncc(C(=O)NC[C@H](O)CN3CCc4cc(OCc5cnco5)ccc4C3)c2)CC1 [Compound 549, (S)-5-((1-acetylpiperidin-4-yl)amino)-N-(2-hydroxy-3-(6-(oxazol-5-ylmethoxy)-3,4-dihydroisoquinolin-2(1H)-yl)propyl)nicotinamide] | A (a Ki ratio greater than or equal to 10 fold between the Ki in the presence of SAM and the Ki in the presence of MTA) | C* (an IC50 ratio of less than 3 fold between the IC50 in the HAP1 MTAP-intact cell line and the HAP1 MTAP-deleted cell line) |
| 50 to 500 nM | ≥ 10000 nM | 50 to 500 nM | ≥ 5000 nM | ≥ 10000 nM | Cc1c(OCc2cnco2)ccc2c1CCN(C[C@@H](O)CNC(=O)c1ccnc(NC3CN(C(=O)C(C)C)C3)c1)C2 [Compound 550] | A (a Ki ratio greater than or equal to 10 fold between the Ki in the presence of SAM and the Ki in the presence of MTA) | C* (an IC50 ratio of less than 3 fold between the IC50 in the HAP1 MTAP-intact cell line and the HAP1 MTAP-deleted cell line) |
| 50 to 500 nM | ≥ 10000 nM | 50 to 500 nM | 500 to 5000 nM | ≥ 10000 nM | CCCC(=O)N1CC(Nc2cc(C(=O)NC[C@H](O)CN3CCc4c(ccc(OCc5cnco5)c4C)C3)ccn2)C1 [Compound 551, (S)-2-((1-butyrylazetidin-3-yl)amino)-N-(2-hydroxy-3-(5-methyl-6-(oxazol-5-ylmethoxy)-3,4-dihydroisoquinolin-2(1H)-yl)propyl)isonicotinamide] | A (a Ki ratio greater than or equal to 10 fold between the Ki in the presence of SAM and the Ki in the presence of MTA) | C* (an IC50 ratio of less than 3 fold between the IC50 in the HAP1 MTAP-intact cell line and the HAP1 MTAP-deleted cell line) |
| 50 to 500 nM | < 1000 nM | 50 to 500 nM | 500 to 5000 nM | < 1000 nM | COCCN(C)c1cc(C(=O)NC[C@H](O)CN2CCc3cc(OCc4ocnc4C)ccc3C2)cc(NC2CCC2)n1 [Compound 554] | A (a Ki ratio greater than or equal to 10 fold between the Ki in the presence of SAM and the Ki in the presence of MTA) | C* (an IC50 ratio of less than 3 fold between the IC50 in the HAP1 MTAP-intact cell line and the HAP1 MTAP-deleted cell line) |
